# Measured values taken from patent publication US7618988B2, “Use of substituted aminomethyl chromans” (Merck Patentgesellschaft, priority 2001, dated 2009).
# Tests used:
# 5-HT1A receptor = 5-HT1A receptor (UniProt P19327); assay: 5-HT1A receptor radioligand binding; conditions: in vitro radioligand binding; read-out: IC50, binding to 5HT1A receptors
# Excerpt: (§1) The affinity to the 5-HT1A receptor can be determined in vitro by radioligand binding experiments according to Cossery J M et al. (Eur. J. Pharmacol. 1987; 140: 143-155). The functional agonistic properties at the 5HT1A receptor can be determined in vitro in the GTP-gamma-S test (Newman-Tancredi A et al., Eur. J. Pharmacol.1996; 307: 107-111). A standard in vivo animal model to test for the 5HT1A agonistic properties is the ultrasonic vocalization test in rats (e.g. deFry J et al., Eur. J. Pharmacol. 1993; 249: 331-339; Sanchez C, Behav. Pharmacol. 1993; 4: 269-277). The affinity for dopamine D4 receptors can be determined in vitro by radioligand binding experiments according to Klokow M et al. (Drug Res. 1986; 36: 197-200).
# dopamine D4 receptors = dopamine D4 receptors (Homo sapiens, UniProt P21917); assay: dopamine D4 receptor radioligand binding; conditions: in vitro radioligand binding
# Chain of dopamine D4 receptors (P21917 whole entry): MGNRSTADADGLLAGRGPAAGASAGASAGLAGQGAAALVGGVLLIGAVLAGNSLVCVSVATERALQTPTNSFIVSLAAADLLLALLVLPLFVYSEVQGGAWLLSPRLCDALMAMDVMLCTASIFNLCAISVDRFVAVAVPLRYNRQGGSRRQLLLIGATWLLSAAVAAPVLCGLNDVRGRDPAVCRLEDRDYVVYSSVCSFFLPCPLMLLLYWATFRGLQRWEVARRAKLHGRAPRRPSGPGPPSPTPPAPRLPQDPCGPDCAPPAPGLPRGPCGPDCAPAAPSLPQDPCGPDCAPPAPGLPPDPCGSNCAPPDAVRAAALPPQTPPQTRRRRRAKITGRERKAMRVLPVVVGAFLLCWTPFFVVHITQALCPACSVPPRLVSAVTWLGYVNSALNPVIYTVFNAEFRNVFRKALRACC
# Excerpt: as §1
# 5HT1A receptor = 5HT1A receptor (Homo sapiens, UniProt P08908); assay: GTP-gamma-S test (5HT1A agonism); format: biochemical; conditions: in vitro, 5HT1A agonistic properties; read-out: ED50 in GTP-gamma-S test
# Chain of 5HT1A receptor (P08908 whole entry): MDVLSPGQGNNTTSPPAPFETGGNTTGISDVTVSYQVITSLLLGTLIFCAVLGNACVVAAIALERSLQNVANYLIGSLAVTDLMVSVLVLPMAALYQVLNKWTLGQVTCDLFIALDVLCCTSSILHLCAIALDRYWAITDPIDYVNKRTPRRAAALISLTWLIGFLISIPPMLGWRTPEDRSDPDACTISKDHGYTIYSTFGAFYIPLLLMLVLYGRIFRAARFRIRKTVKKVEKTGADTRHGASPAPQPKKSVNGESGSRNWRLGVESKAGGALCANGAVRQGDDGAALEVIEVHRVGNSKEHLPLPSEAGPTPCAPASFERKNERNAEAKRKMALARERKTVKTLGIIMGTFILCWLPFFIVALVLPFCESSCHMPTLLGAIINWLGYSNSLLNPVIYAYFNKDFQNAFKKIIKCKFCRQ
# Excerpt: as §1
# rats [1] = assay: ultrasonic vocalization test in rats; conditions: Rattus norvegicus, in vivo
# Excerpt: as §1
# rats [2] = assay: systemic 3-nitropropionic acid (3-NP) model in rats; format: in vivo, rat
# Method: A typical animal model is the systemic 3-nitropropionic acid (3-NP) model in rats according to C. V. Borlongan et al., Brain Res., 1995; 697: 254-257. Rats are treated with injections of the selective striatal neurotoxin 3-NP i.p. every fourth day (C. V. Borlongan et al., Brain Res. Protocols, 1997; 1: 253-257). After two injections of 3-NP, rats display nocturnal hyperactivity reflecting symptoms of early Huntington's disease, whereas rats treated with four injections of 3-NP display nocturnal akinesia (hypoactivity) reflecting symptoms of late Huntington's disease. Nocturnal activity is automatically measured in conventional acitivity cages by infrared beams. (2R,4R)-2-({[5-(4-fluorophenyl)-pyridin-3ylmethyl]-amino}-methyl)-chroman-4-ol or a pharmaceutical acceptable salt or solvate thereof reduce both the nocturnal hyperactivity and akinesia.
# [3] = system: patients with Huntington's disease; assay: trial in patients with Huntington's disease; format: in vivo, human; conditions: add on, 2.5 to 20 mg b.i.d.
# Method: A typical trial to establish the effect of the compounds according to the invention on chorea, voluntary motor performance, and functional disability in patients with Huntington's disease encompasses 32 genetically diagnosed patients. (2R,4R)-2-({[5-(4-fluorophenyl)-pyridin-3ylmethyl]-amino}-methyl)-chroman-4-ol monohydrochloride hemihydrate or placebo is administered as “add on” to the conventional treatment, which is maintained unchanged during the whole study. The dose of blinded medication is titrated over a period of 3 weeks in a range from 2.5 to 20 mg b.i.d. Then the medication is held constant for 1 week. Assessments are performed in the week before and at the last day of the trial. Chorea is scored using the abnormal involuntary movement scale (AIMS, W. Guy, in: ECDEU assessment manual. Rockville Md.: US dept. of health, education and welfare, 1976: 534-537), the unified Huntington's disease rating scale (UHDRS, Huntington study group, 1996, Movement Disord, 11: 13642), and judgement of video recordings. Voluntary motor performance is assessed using the UHDRS motor scale. Patients and their partners complete a questionnaire regarding functional disability.
# [4] = system: patients with cervical dystonia (spasmodic torticollis); assay: double-blind study in cervical dystonia (TWSTRS); format: in vivo, human; conditions: 2.5 mg to 20 mg b.i.d.
# [5] = system: neuroleptics sensitized monkey; assay: neuroleptics sensitized monkey; format: in vivo; conditions: haloperidol challenge, scoring system
# Excerpt: Another typical animal model is the neuroleptics sensitized monkey according to D. E. Casey, Psychopharmacology, 1996; 124: 134-140. Monkeys treated repeatedly with conventional neuroleptics are highly sensitive to a subsequent challenge dose of neuroleptic drugs. When challenged, the monkeys immediately show extrapyramidal motor side effects such as dystonia, dyskinesias, akathisia, and bradykinesia which are rated by a scoring system. The conventional neuroleptic drug haloperidol is given as a challenge.
# Pietrain pig = assay: Campus Syndrome in the Pietrain pig (tremor); conditions: in vivo
# Excerpt: Typical genetic models in mutant animals are the Campus Syndrome in the Pietrain pig according to A. Richter et al. (Exp. Neurology, 1995; 134: 205-213) or the Weaver mutant mouse according to J. R. Simon and B. Ghetti (Mol. Neurobiol., 1994; 9: 183-189). In the Campus Syndrome model, these mutant pigs show a high-frequency tremor when standing and during locomotion, but not while lying at rest. Assessment of tremor is made by accelerometric recording. In the Weaver mutant mouse, degenerative cerebellar atrophy is […] in association with tremor, gait instability, and toppling over the sides after a few steps.
# rats [6] = assay: posthypoxic myoclonus in rats; conditions: rat, in vivo
# Method: A typical animal model for myoclonus is myoclonus induced by an acute hypoxic episode according to D. D. Truong et al., Mov. Dsiord., 1994; 9: 201-206). In this model of posthypoxic myoclonus, rats undergo a cardiac arrest for 8 minutes and are resuscitated thereafter. Myoclonic jerks occur spontaneously but can be provoked by auditory stimulation, too, worsening over the days following cardiac arrest.
compound,measurement,setting,value
"O[C@@H]1C[C@H](CNCc2cncc(-c3ccc(F)cc3)c2)Oc2ccccc21 [(2R,4R)-2-({[5-(4-fluorophenyl)-pyridin-3ylmethyl]-amino}-methyl)-chroman-4-ol]",IC50,5-HT1A receptor,10 nM
same,IC50,dopamine D4 receptors,12 nM
same,EC50,5HT1A receptor,33 nM
same,ED50,rats [1],2 mg/kg
same,nocturnal akinesia,rats [2]; after four injections of 3-NP,reduce
same,nocturnal hyperactivity,rats [2]; after two injections of 3-NP,reduce
same,voluntary and involuntary motor performance,[3],significant improvement of voluntary and involuntary motor performance
same,TWSTRS scores,[4],significant improvement
same,extrapyramidal motor side effects,[5],dose-dependently reduce the extrapyramidal motor side effects
same,tremor when standing and during locomotion,Pietrain pig,reduce disabling tremor when standing and during locomotion
same,number of spontaneous and auditory-evoked myoclonic jerks,rats [6],dose-dependently reduce the number of spontaneous and autitory-evoked myoclonic jerks
